Measurements: patent US20100216751A1 (priority 2007, published 2010)
Where “and” joins values, the source holds several entries; their conditions need not be identical. Equal entries are not always repeated.

Assay: Pharmacokinetic evaluation of liquid bevirimat dosage forms, oral gavage, male Cynomolgus monkeys
Procedure: Six male Cynomolgus monkeys having an initial body weight of about 3.5 to about 4.5 kg are allowed 7 days to acclimate to their individual housing units. Monkeys are supplied with water and a commercial diet ad libitum prior to the study initiation. Food is withheld from the monkeys for a minimum of twelve hours before the study and during the study until four hours postdose when food is returned. Water is supplied ad libitum.
Test formulations are administered to the monkeys at time 0 on appropriate days. Test formulations will be dosed orally via oral gavage or intravenously.
Samples are drawn at the frequencies indicated below. Each blood sample (0.5 mL) is collected from the monkey's saphenous vein via a butterfly catheter and placed into a chilled polypropylene tube containing sodium heparin as the anticoagulant. Blood samples are centrifuged at a temperature of 4° C. at a speed of 3,000 rpm for 15 minutes. All samples are maintained chilled throughout processing. Plasma is collected after centrifugation, pipetted into a 2-mL polypropylene microtube, and frozen on dry-ice pending analytical evaluation.

[1] = oral, 50 mg/monkey, PG/glycerin/Vitamin ETPGS/Tween80/Plasdone C15 formulation, individual monkey
[2] = oral, 50 mg/monkey, PG/glycerin/Vitamin ETPGS/ethanol formulation, individual monkey
[3] = oral, 200 mg/monkey, PG/glycerin/Vitamin ETPGS/ethanol formulation, individual monkey

SMILES: C=C(C)[C@@H]1CC[C@]2(C(=O)O)CC[C@]3(C)[C@H](CC[C@@H]4[C@@]5(C)CC[C@H](OC(=O)CC(C)(C)C(=O)O)C(C)(C)[C@@H]5CC[C@]43C)[C@@H]12 [Bevirimat, 3-O-(3′,3′-dimethylsuccinyl)betulinic acid]
- concentration at 6 hr (male, cynomolgus monkey, in vivo, po, 200 mg/monkey, Plasma Concentration, PG/glycerin/Vitamin ETPGS/ethanol formulation, 6.0 hr, individual monkey): 79400 ng/mL
- concentration at 8 hr (male, cynomolgus monkey, in vivo, po, 200 mg/monkey, Plasma Concentration, PG/glycerin/Vitamin ETPGS/ethanol formulation, 8.0 hr, AVG): 51300 ng/mL
- concentration at 8 hr (male, cynomolgus monkey, in vivo, po, 200 mg/monkey, Plasma Concentration, PG/glycerin/Vitamin ETPGS/ethanol formulation, 8.0 hr, individual monkey): 53400 ng/mL
- concentration at 12 hr (male, cynomolgus monkey, in vivo, po, 200 mg/monkey, Plasma Concentration, PG/glycerin/Vitamin ETPGS/ethanol formulation, 12 hr, AVG): 19600 ng/mL
- concentration at 12 hr (male, cynomolgus monkey, in vivo, po, 200 mg/monkey, Plasma Concentration, PG/glycerin/Vitamin ETPGS/ethanol formulation, 12 hr, individual monkey): 15600 ng/mL
- concentration at 24 hr (male, cynomolgus monkey, in vivo, po, 200 mg/monkey, Plasma Concentration, PG/glycerin/Vitamin ETPGS/ethanol formulation, 24 hr, AVG): 4840 ng/mL
- concentration at 48 hr (male, cynomolgus monkey, in vivo, po, 200 mg/monkey, Plasma Concentration, PG/glycerin/Vitamin ETPGS/ethanol formulation, 48 hr, AVG): 2620 ng/mL
- concentration at 72 hr (male, cynomolgus monkey, in vivo, po, 200 mg/monkey, Plasma Concentration, PG/glycerin/Vitamin ETPGS/ethanol formulation, 72 hr, AVG): 296 ng/mL
- Plasma Concentration (oral, 50 mg/monkey, PG/glycerin/Vitamin ETPGS/Tween80/Plasdone C15 formulation, 0.25 hr, individual monkey): 56.3 ng/mL and 67.8 ng/mL
- Plasma Concentration (oral, 50 mg/monkey, PG/glycerin/Vitamin ETPGS/Tween80/Plasdone C15 formulation, 0.50 hr, individual monkey): 409 ng/mL and 2660 ng/mL and 7590 ng/mL
- Plasma Concentration (oral, 50 mg/monkey, PG/glycerin/Vitamin ETPGS/Tween80/Plasdone C15 formulation, 1.0 hr, individual monkey): 1010 ng/mL and 17400 ng/mL and 56100 ng/mL
- Plasma Concentration (oral, 50 mg/monkey, PG/glycerin/Vitamin ETPGS/Tween80/Plasdone C15 formulation, 2.0 hr, individual monkey): 63500 ng/mL and 68500 ng/mL
- Plasma Concentration (oral, 50 mg/monkey, PG/glycerin/Vitamin ETPGS/Tween80/Plasdone C15 formulation, 6.0 hr, individual monkey): 36300 ng/mL and 29000 ng/mL
- Plasma Concentration (oral, 50 mg/monkey, PG/glycerin/Vitamin ETPGS/Tween80/Plasdone C15 formulation, 8.0 hr, individual monkey): 21800 ng/mL and 19000 ng/mL
- Plasma Concentration (oral, 50 mg/monkey, PG/glycerin/Vitamin ETPGS/Tween80/Plasdone C15 formulation, 12 hr, individual monkey): 9150 ng/mL and 6750 ng/mL
- Plasma Concentration (oral, 50 mg/monkey, PG/glycerin/Vitamin ETPGS/Tween80/Plasdone C15 formulation, 24 hr, individual monkey): 1490 ng/mL and 988 ng/mL
- Plasma Concentration (oral, 50 mg/monkey, PG/glycerin/Vitamin ETPGS/Tween80/Plasdone C15 formulation, 48 hr, individual monkey): 635 ng/mL and 174 ng/mL and 200 ng/mL
- Plasma Concentration (oral, 50 mg/monkey, PG/glycerin/Vitamin ETPGS/Tween80/Plasdone C15 formulation, 72 hr, individual monkey): BLOQ
- Cmax [1]: 63500 ng/mL and 68500 ng/mL
- t1/2 [1]: 5.3 h and 5.4 h
- Plasma Concentration (oral, 50 mg/monkey, PG/glycerin/Vitamin ETPGS/ethanol formulation, 0.25 hr, individual monkey): BLOQ
- Plasma Concentration (oral, 50 mg/monkey, PG/glycerin/Vitamin ETPGS/ethanol formulation, 0.50 hr, individual monkey): 268 ng/mL and 420 ng/mL and 49.7 ng/mL
- Plasma Concentration (oral, 50 mg/monkey, PG/glycerin/Vitamin ETPGS/ethanol formulation, 1.0 hr, individual monkey): 40200 ng/mL and 23100 ng/mL
- Plasma Concentration (oral, 50 mg/monkey, PG/glycerin/Vitamin ETPGS/ethanol formulation, 2.0 hr, individual monkey): 70800 ng/mL
- Plasma Concentration (oral, 50 mg/monkey, PG/glycerin/Vitamin ETPGS/ethanol formulation, 4.0 hr, individual monkey): 33200 ng/mL and 59800 ng/mL
- Plasma Concentration (oral, 50 mg/monkey, PG/glycerin/Vitamin ETPGS/ethanol formulation, 6.0 hr, individual monkey): 18100 ng/mL and 14000 ng/mL and 37000 ng/mL
- Plasma Concentration (oral, 50 mg/monkey, PG/glycerin/Vitamin ETPGS/ethanol formulation, 8.0 hr, individual monkey): 10600 ng/mL and 10000 ng/mL and 23600 ng/mL
- Plasma Concentration (oral, 50 mg/monkey, PG/glycerin/Vitamin ETPGS/ethanol formulation, 12 hr, individual monkey): 3390 ng/mL and 3450 ng/mL and 9100 ng/mL
- Plasma Concentration (oral, 50 mg/monkey, PG/glycerin/Vitamin ETPGS/ethanol formulation, 24 hr, individual monkey): 922 ng/mL and 1100 ng/mL and 2000 ng/mL
- Plasma Concentration (oral, 50 mg/monkey, PG/glycerin/Vitamin ETPGS/ethanol formulation, 48 hr, individual monkey): 62.6 ng/mL and 97.8 ng/mL and 286 ng/mL
- Plasma Concentration (oral, 50 mg/monkey, PG/glycerin/Vitamin ETPGS/ethanol formulation, 72 hr, individual monkey): BLOQ
- Cmax [2]: 50500 ng/mL and 70800 ng/mL
- Dnzed AUCall [2]: 33692 ng·h/mL/mg/kg
- t1/2 [2]: 7.0 h and 7.4 h
- Plasma Concentration (oral, 200 mg/monkey, PG/glycerin/Vitamin ETPGS/ethanol formulation, 0.25 hr, individual monkey): 1040 ng/mL and 89.0 ng/mL
- Plasma Concentration (oral, 200 mg/monkey, PG/glycerin/Vitamin ETPGS/ethanol formulation, 0.50 hr, individual monkey): 10300 ng/mL and 1740 ng/mL
- Plasma Concentration (oral, 200 mg/monkey, PG/glycerin/Vitamin ETPGS/ethanol formulation, 1.0 hr, individual monkey): 88400 ng/mL and 41200 ng/mL
- Plasma Concentration (oral, 200 mg/monkey, PG/glycerin/Vitamin ETPGS/ethanol formulation, 2.0 hr, individual monkey): 232000 ng/mL
- Plasma Concentration (oral, 200 mg/monkey, PG/glycerin/Vitamin ETPGS/ethanol formulation, 4.0 hr, individual monkey): 138000 ng/mL
- Plasma Concentration (oral, 200 mg/monkey, PG/glycerin/Vitamin ETPGS/ethanol formulation, 6.0 hr, individual monkey): 76300 ng/mL
- Plasma Concentration (oral, 200 mg/monkey, PG/glycerin/Vitamin ETPGS/ethanol formulation, 12 hr, individual monkey): 23700 ng/mL
- Plasma Concentration (oral, 200 mg/monkey, PG/glycerin/Vitamin ETPGS/ethanol formulation, 24 hr, individual monkey): 2180 ng/mL and 7500 ng/mL
- Plasma Concentration (oral, 200 mg/monkey, PG/glycerin/Vitamin ETPGS/ethanol formulation, 48 hr, individual monkey): 547 ng/mL and 4700 ng/mL
- Plasma Concentration (oral, 200 mg/monkey, PG/glycerin/Vitamin ETPGS/ethanol formulation, 72 hr, individual monkey): 117 ng/mL and 474 ng/mL
- AUCall [3]: 1398.863 µg·h/mL
- Cmax [3]: 232000 ng/mL
- Dnzed AUCall [3]: 27977 ng·h/mL/mg/kg
- t1/2 [3]: 10.1 h
